Tested on: Jatropha curcas elongated shoots
Test: in vitro rooting of elongated shoots
Format: cell-based
Conditions: 4.9 μM in half strength Murashige & Skoog Basal Medium

Compound: O=C(O)CCCc1c[nH]c2ccccc12 [IBA, Indole-3-butyric acid]
- root formation: well-formed roots

Reference: patent US7932086B2, “Commercially viable process for in vitro mass culture of Jatropha curcas” (Reliance Life Sciences Pvt. Ltd., priority 2007, dated 2011)
